Results on 61 compounds are retold here after the METLIN SMRT retention time set (Domingo-Almenara et al. 2019).

Structures are written as SMILES.

The nature of the series: gradient 5% acetonitrile 3 min, to 50% in 2 min, to 85% in 15 min, held 3 min, 100 µL/min. The settings on record: column: Zorbax Extend-C18 2.1 x 50 mm; eluents: water / acetonitrile, 0.1% formic acid. Summed up:
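Pure standards were run in mixtures of ~100 molecules by HPLC coupled to a quadrupole time-of-flight mass spectrometer. The column was a Zorbax Extend-C18 (2.1 × 50 mm, 1.8 μm) at 100 μL/min, with water and acetonitrile each containing 0.1% formic acid, in positive and negative ionization mode. Dead and dwell volumes were 40 μL and 900 μL. Retention time was taken from computationally picked adduct peaks, each manually inspected, with data collected over 3 months.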
For `COc1ccc(C(=O)NCCS(=O)(=O)NCc2cccnc2)cc1`, the RP-LC retention time was found to be 547 s.

`O=C(NCc1ccccc1Br)c1cn2c(n1)COCC2`: the RP-LC retention time is 680 s.

Regarding `O=S(=O)(Cc1ccccc1)N1CCCC(c2nn[nH]n2)C1` (stereo unspecified), the RP-LC retention time amounted to 706 s.

With `CCn1ccc2sc(C)c(C(=O)N3CCC(N4CCCCC4)CC3)c2c1=O`, the RP-LC retention time is 566 s.

Consider `CCC1(C(=O)Nc2ccc(C)c(F)c2)CCCCC(=O)N1` (stereo unspecified), for which the RP-LC retention time was 771 s.

In turn, `COc1cc(F)ccc1-c1ccnc2nc(C3CCCCC3)nn12` came in with an RP-LC retention time of 1000 s.

As for `Cc1ccc(CNC(=O)CCc2nnc3c4cc(-c5ccccc5)nn4ccn23)o1`, the RP-LC retention time was determined as 749 s.

`Cc1cccc(OCc2nc(-c3ccc(-c4csc(C5CC5)n4)cc3)no2)c1`: the RP-LC retention time stood at 784 s.

`Cn1nccc1C(=O)N1CCC(c2nncn2Cc2ccccc2)CC1` had an RP-LC retention time of 624 s.

The compound `CCc1nn2c(CNS(=O)(=O)c3ccccc3Cl)c(-c3ccccc3)nc2s1` yielded an RP-LC retention time of 1000 s.

As to `Cc1ccccc1NS(=O)(=O)c1cccc(-c2nc(-c3ccccc3)no2)c1`, the RP-LC retention time was found to be 1160 s.

As for `CCCCn1cnc2c(-c3ccccc3)cn(CC(=O)NC(C)CC)c2c1=O` (stereo unspecified), the RP-LC retention time was found to be 985 s.

In turn, `Cc1ccc(NC(=O)C2CCN(S(=O)(=O)c3ccc4[nH]c5c(c4c3)CCCCC5)CC2)nc1` yielded an RP-LC retention time of 897 s.

In turn, `N#Cc1ccc(S(=O)(=O)N2CCC(c3cc(N)on3)CC2)cc1` returned an RP-LC retention time of 737 s.

Compound `Cn1nc(-c2cccc(NC(=O)c3cccs3)c2)ccc1=O` had an RP-LC retention time of 678 s.

Compound `COCc1nc(C2CCN(C(=O)Nc3ccc4c(c3)OCCO4)C2)no1` (stereo unspecified) had an RP-LC retention time of 662 s.

As to `COc1ccc(NC(=O)C2CC(=O)N(CCc3c[nH]c4ccc(Cl)cc34)C2)c(OC)c1` (stereo unspecified), the RP-LC retention time came to 820 s.

Take `O=C(Nc1ccc(Cl)cc1)Nc1cccn2ncnc12`: the RP-LC retention time was 838 s.

Take `COCCOC1CCC12CCN(C(=O)c1conc1C)CC2` (stereo unspecified): the RP-LC retention time was found to be 706 s.

In the case of `COc1cccc(NC(=O)N2CCN(c3cc(C)nc(N4CCCC4)n3)CC2)c1`, the RP-LC retention time was 657 s.

With `CCc1noc(NC(C)=O)c1-c1ccc(C)c(S(=O)(=O)N2CCCCCC2)c1`, the RP-LC retention time is 926 s.

In turn, `Cc1cccc(Oc2cc(N3CCC(C(=O)NCCC4=CCCCC4)CC3)ncn2)c1C` displayed an RP-LC retention time of 1110 s.

As to `O=C(Nc1ccccc1F)N1C[C@H]2C[C@H](C1)[C@H]1CCCC(=O)N1C2`, the RP-LC retention time was 627 s.

Turning to `N#Cc1ccc(C(=O)NC2CC(=O)N(Cc3ccccc3)C2)cc1` (stereo unspecified), the RP-LC retention time is 768 s.

For the compound `CCn1ncn2cc(S(=O)(=O)Nc3ccc(F)c(F)c3)cc2c1=O`, the RP-LC retention time worked out at 884 s.

Compound `CCCCOc1ccc(C(=O)NC2(c3nc(-c4cccnc4)no3)CCCCC2)cc1` returned an RP-LC retention time of 1170 s.

As for `O=C(Cc1ccsc1)N1CCC[C@H]1c1nc(-c2ccccc2)n[nH]1`, the RP-LC retention time amounted to 718 s.

`NC(=O)C1CCN(C(=O)c2cn(-c3cccc(F)c3)nn2)CC1` came in with an RP-LC retention time of 608 s.

On to `Cc1nc(Nc2ccc(F)cn2)sc1C(=O)N1CCC(C(N)=O)(N2CCCCC2)CC1`, for which the RP-LC retention time is 590 s.

As for `CC(C)Cn1c(=O)c2ccccc2n(Cc2nc(-c3cccc(Cl)c3)no2)c1=O`, the RP-LC retention time is 1250 s.

For the compound `O=C(c1ccoc1)N1CCC(c2noc(C3CC3)n2)C1` (stereo unspecified), the RP-LC retention time came to 694 s.

As to `Cc1nc(Nc2ccc(F)cn2)sc1C(=O)NCCCc1ccccc1`, the RP-LC retention time turned out to be 883 s.

The compound `O=c1cc(CSc2nnc(-c3ccc4c(c3)OCO4)o2)nc2sccn12` returned an RP-LC retention time of 727 s.

In the case of `CCOc1ccccc1C(=O)Nc1c(-c2ccc(OC)cc2)nc2cc(C)ccn12`, the RP-LC retention time stood at 732 s.

`O=c1cc(-c2ccccc2)oc2c(O)c(O)ccc12` had an RP-LC retention time of 720 s.

The compound `COc1ccccc1-c1nc(-c2cn(Cc3ccc(F)cc3)nn2)no1` came in with an RP-LC retention time of 927 s.

Compound `Cc1cccc(C2CC(=O)c3c(C)nc(N4CCN(CCO)CC4)nc3C2)c1` (stereo unspecified) came in with an RP-LC retention time of 665 s.

Regarding `CCCn1cc(S(=O)(=O)NCc2ccccc2OC)c2cccnc21`, the RP-LC retention time was found to be 890 s.

`COc1cc2c(cc1OC)C(=O)C(CC1CCN(Cc3ccccc3)CC1)C2` (stereo unspecified) had an RP-LC retention time of 690 s.

`CCCOc1nc2ccccc2nc1N1CCCC(C(=O)Nc2ccccc2)C1` (stereo unspecified) gave an RP-LC retention time of 1250 s.

On to `Cc1cccc(NC(=O)N2CCCC2c2nc(-c3ccc(F)cc3F)no2)c1C` (stereo unspecified), for which the RP-LC retention time was determined as 981 s.

As for `O=C(Nc1ccccc1F)c1c(O)c2cccnc2n(-c2cccc(F)c2)c1=O`, the RP-LC retention time amounted to 1250 s.

For the compound `CCc1nnc2cc(N3CCN(S(=O)(=O)c4cccc(F)c4)CC3)cnn12`, the RP-LC retention time came out at 690 s.

Take `CSc1cccc(NC(=O)Nc2c(-c3ccncc3)nc3ccccn23)c1`: the RP-LC retention time is 623 s.

Consider `CC1Oc2ccccc2N(Cc2nc(-c3ccc(Br)cc3)no2)C1=O` (stereo unspecified), for which the RP-LC retention time came to 1180 s.

The compound `CCCCC(=O)N1CC(c2nc(-c3ccc(F)cc3)no2)C2(CCOCC2)C1` (stereo unspecified) displayed an RP-LC retention time of 904 s.

Compound `Cc1cc(C)c(C(=O)N2CCC(CC(=O)NCCC(C)C)CC2)[nH]1` returned an RP-LC retention time of 764 s.

The compound `O=c1c2cc(-c3cccc4ccccc34)nn2ccn1Cc1nc(-c2ccccc2)no1` came in with an RP-LC retention time of 1140 s.

For the compound `COc1cc(NC(=O)CSc2nnnn2C)c2ncccc2c1`, the RP-LC retention time turned out to be 724 s.

The compound `CC(C)NCc1ccc(-c2cc(Cl)ccc2Cl)o1` registered an RP-LC retention time of 709 s.

As for `CC1=C(c2ccc(F)cc2)S(=O)(=O)N=C1N1CCCN(C(=O)c2ccc(C)s2)CC1`, the RP-LC retention time was 857 s.

With `Cc1nc2cc3c(cc2n1CC(=O)NC1CCCc2ccccc21)OCCO3` (stereo unspecified), the RP-LC retention time was determined as 682 s.

Take `COc1ccc(NC(=O)Cn2c(=O)c(CCC(=O)NCC(C)C)nc3ccccc32)c(OC)c1`: the RP-LC retention time came out at 780 s.

`O=C(NCC(O)Cc1ccccc1)c1cccc(Cl)c1` (stereo unspecified) displayed an RP-LC retention time of 757 s.

Consider `CCc1nc(-n2cccc2)sc1C(=O)Nc1ccc(Cl)cc1`, for which the RP-LC retention time is 1180 s.

Regarding `COc1ccc(-c2noc(C3CC(=O)N(c4ccc5c(c4)OCCO5)C3)n2)cc1` (stereo unspecified), the RP-LC retention time came out at 897 s.

Regarding `O=C(Cc1csc2nc(-c3cccc(Br)c3)cn12)Nc1ccccc1F`, the RP-LC retention time is 958 s.

In turn, `CCC(C)NC(=O)c1ccc2c(c1)N(C(=O)NC)CC2` (stereo unspecified) yielded an RP-LC retention time of 652 s.

In turn, `O=C(C1=CN(c2cccc(F)c2)c2cc(Cl)ccc2S1(=O)=O)N1CCOCC1` displayed an RP-LC retention time of 825 s.

In the case of `Cc1ccc(C)c(NC(=O)Cn2nc3c(N4CCC(C)CC4)nccn3c2=O)c1`, the RP-LC retention time is 864 s.

Consider `CCCCN(C)Cc1nc2nc(C)cc(N3CCOCC3)n2n1`, for which the RP-LC retention time stood at 582 s.
